Test in all cases: growth of human tumour cells (NCI), 48 h
The subject of experiment [1] is HL-60(TB) leukemia.
The subject of experiment [2] is MDA-MB-435.
For experiment [3], the system named is SF-268 CNS.
Experiment [4] concerns HCT-116 colon.
Experiment [5] deals with RXF 393 renal.
Experiment [6] concerns SF-295 CNS.
In experiment [7] the test system is SNB-75 CNS.
Experiment [8] deals with MDA-MB-231 breast.
In experiment [9] the test system is SNB-19 CNS.
Experiment [10] deals with NCI/ADR-RES ovarian.

Molecules are shown by their SMILES. Several values for one entry are separate records, joined by “and”; a condition that tells them apart may be missing. Identical values can stand only once.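 Grown in 96-well plates, cells were treated for 48 hours with each compound at five concentrations. Insufficient inhibition: endpoint recorded as highest concentration tested. GI50: concentration for 50% inhibition of growth. TGI: concentration producing complete growth inhibition.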

For the molecule `Cn1c2ccccc2c2c3[nH]c(=O)[nH]c(=O)c3c3c4ccccc4n(C)c3c21`, the GI50 in [1] is greater than 100 µM; in experiment [2] it was 3.05 µM; in experiment [3], 3.12 µM; in experiment [4] it was 2.37 µM; in [5] it was 1.74 µM; in [6], 10.5 µM. Besides, the GI50 in [7] is 1.49 µM; in [8], 5.41 µM; in experiment [9], 3.8 µM; in [10], 2.89 µM. For the same molecule, the TGI is greater than 100 µM in [1]; greater than 100 µM in experiment [2]; 15.6 µM in experiment [3]; 12.9 µM in experiment [4]; 5.25 µM in experiment [5]; 27.8 µM in experiment [6]. For the same molecule, the TGI in experiment [7] came to 3.27 µM; in experiment [8], 31.4 µM; in experiment [9], 21.4 µM; in experiment [10], 17 µM.
In the case of `CON(C)C(=O)N1N=C(c2cc(F)ccc2F)SC1(CCCN)c1ccccc1` (centres undefined), the GI50 was 0.0184 µM and < 0.01 µM in experiment [1]; less than 0.01 µM in experiment [2]; 0.0217 µM and < 0.01 µM in [3]; less than 0.01 µM in experiment [4]; less than 0.01 µM in experiment [5]; 0.0191 µM and < 0.01 µM in experiment [6]. The GI50 in experiment [7] is 0.0531 µM and < 0.01 µM; in experiment [8], less than 0.01 µM; in [9] it was 0.109 µM and < 0.0132 µM; in experiment [10] it was 0.544 µM and 0.122 µM. The TGI is 5.38 µM and 2.03 µM in experiment [1]; less than 0.01 µM in experiment [2]; 17.3 µM and 16 µM in experiment [3]; 16.1 µM and 15.2 µM in [4]; 0.756 µM in experiment [5]; 1.1 µM in experiment [6]. The TGI in experiment [7] is 16.2 µM and 15 µM; in experiment [8] it was 0.039 µM; in experiment [9] it was 23.2 µM and 23.7 µM; in experiment [10], 5.34 µM and 2.87 µM.
`CC[C@H](C)[C@H]1O[C@]2(C=C[C@@H]1C)C[C@@H]1C[C@@H](C/C=C(\C)[C@@H](O[C@H]3C[C@H](OC)[C@@H](O[C@H]4C[C@H](OC)[C@@H](NC)[C@H](C)O4)[C@H](C)O3)[C@@H](C)/C=C/C=C3\CO[C@@H]4[C@H](O)C(C)=C[C@@H](C(=O)O1)[C@]34O)O2`: the GI50 in experiment [1] is 1.88 µM; in experiment [2] it was 1.79 µM; in experiment [3], 3.9 µM; in experiment [4], 2 µM; in experiment [5], 2.03 µM; in [6] it was 2.6 µM. Moreover, the GI50 in [7] was 1.93 µM; in experiment [8], 2 µM; in [9], 4.27 µM; in experiment [10], 3.05 µM. Moreover, the TGI came out at 3.81 µM in experiment [1]; 3.62 µM in experiment [2]; 16 µM in experiment [3]; 5.12 µM in experiment [4]; 4.47 µM in experiment [5]; 8.17 µM in experiment [6]. In addition, the TGI in [7] amounted to 8.44 µM; in experiment [8], 4.4 µM; in experiment [9], 16.9 µM; in experiment [10] it was 11.3 µM.
In the case of `CNc1nc(N)c(N=O)c(Nc2ccc(Br)cc2)n1`, the TGI in [1], in [2], in experiment [3], in [4], in [5] and in experiment [6] was greater than 100 µM throughout. Also, the TGI in experiment [7], in experiment [8], in experiment [9] and in [10] was greater than 100 µM each time.
Turning to `O=C(/C=C\n1cnc(-c2cc(C(F)(F)F)cc(C(F)(F)F)c2)n1)NNc1cnccn1`, the GI50 in experiment [1] is 0.0467 µM; in [2], 0.0533 µM; in experiment [3] it was 0.0577 µM; in experiment [4], 0.0821 µM; in experiment [5], 0.028 µM; in experiment [6], 0.0534 µM. Moreover, the GI50 is 0.118 µM in experiment [7], 0.0577 µM in [8], 0.142 µM in [9] and 0.0933 µM in experiment [10]. In addition, the TGI in [2] was determined as 1.24 µM; in experiment [3], 10.6 µM; in experiment [4], 12.4 µM; in [5], 0.225 µM; in experiment [6] it was 11.2 µM; in [7] it was 1.97 µM. Further, the results for the TGI in experiment [8], in [9] and in experiment [10] were 14.8 µM, 13.4 µM and 27.1 µM, respectively.

(Values after PubChem BioAssay (NCI).)
